Patent publication US20130090280A1, “CLEANING COMPOSITIONS AND METHODS” (HONEYWELL INTERNATIONAL INC., priority 2011, published 2013)
Like-named read-outs stand apart in the source and are kept apart here.

Key:
[1] = selected physical properties of solvents
From the text: In the table Perc, is used as an abbreviation for perchloroethylene.

[2] = miscibility test, equal parts by weight of solvent and oils, visual observation; type: physicochemical
From the text: Applicants compared the solubility of various materials which may be considered as soils to be cleaned in 1233zd(E) in Table 3. […] In all cases, the solvent looked clear and the mixtures are reported as miscible below. This is an initial mode of testing to check how well the solvent performs in dissolving the soils.

[3] = chemical stability, reflux with metals and moisture, ion chromatography of aqueous wash; type: physicochemical
From the text: The chemical stability of the compound 1233zd(E) by itself and also in the presence of water, metals, flux is another important factor to be considered in the identification of a successful solvent. […] This test continued for 2 weeks.
Solvent was boiled with water alone or in presence of various metal coupons such as stainless steel 304, cold-rolled steel, galvanized steel, copper, and aluminum. The coupons were partially immersed in the solvent which allowed the state of the coupons at the interface of liquid and vapor to be viewed. […] After the test, coupons were observed visually for rusting or pitting and the remaining solvent in the flask was examined for breakdown products including chlorides and fluorides which are good indicators of breakdown of solvents.

[4] = 0.2% moisture added, reflux 100 hours, AL
[5] = 0.2% moisture added, reflux 100 hours, CRS
[6] = 0.2% moisture added, reflux 100 hours, CU
[7] = 0.2% moisture added, reflux 100 hours, GAL
[8] = 0.2% moisture added, reflux 100 hours, S.S 304
[9] = 0.2% moisture added, reflux 100 hours, no metal
[10] = no additional moisture, reflux, AL
[11] = no additional moisture, reflux, CRS
[12] = no additional moisture, reflux, CU
[13] = no additional moisture, reflux, GAL
[14] = no additional moisture, reflux, S.S 304
[15] = no additional moisture, reflux, no metal
[16] = no additional moisture, virgin/no reflux

Compound: O [water]
- surface tension [1]: 72.1 dynes/cm

Compound: CCCBr [n-Propyl Bromide, n-propyl bromide, reference compound]
- Boiling Point [1]: 71 °C
- Flash Point [1]: None
- Vapor Pressure ([1]; @20 C.): 2.1 psi
- Heat of Vaporization ([1]; at bp): 246 kJ/kg
- Soil Dissolution in solvent ([2]; Mineral Oil): Miscible
- Soil Dissolution in solvent ([2]; Refrigerant oil): Miscible
- Soil Dissolution in solvent ([2]; Silicone Lubricant): Miscible
- Soil Dissolution in solvent ([2]; Solder Flux): Miscible

Compound: FC(F)(Cl)C(F)(Cl)Cl [CFC-113, 1,1,2-trichlorotrifluoroethane]
- Boiling Point [1]: 47.6 °C
- Flash Point [1]: None
- Kauri-Butanol value [1]: 32
- Vapor Pressure [1]: 5.27 psi
- Heat of Vaporization ([1]; at bp): 144.7 kJ/kg

Compound: dichloropentafluoropropane [HCFC-225]
- Boiling Point [1]: 54 °C
- Flash Point [1]: None
- Vapor Pressure ([1]; @20 C.): 5.6 psi
- Heat of Vaporization ([1]; @25° C.): 145@25 °C kJ/kg

Compound: ClC(Cl)=C(Cl)Cl [Perc, perchloroethylene]
- Boiling Point [1]: 121.3 °C
- Flash Point [1]: None
- Vapor Pressure ([1]; @20 C.): 0.27 psi
- Heat of Vaporization ([1]; at bp): 207 kJ/kg

Compound: FC(C(F)C(F)(F)C(F)(F)F)C(F)(F)F (stereo not drawn) [HFC 43-10mee]
- Boiling Point [1]: 54 °C
- Flash Point [1]: None
- Vapor Pressure [1]: 4.4 psi
- Heat of Vaporization ([1]; at bp): 129.7 kJ/kg

Compound: FC(F)(F)/C=C/Cl [1233zd(E), trans-1-chloro-3,3,3-trifluoropropene]
- Boiling Point [1]: 19.52 °C
- Flash Point [1]: None
- Kauri-Butanol value [1]: 25
- flammability [1]: completely non-flammable
- Vapor Pressure ([1]; @20 C.): 15.23 psi
- Heat of Vaporization ([1]; at bp): 193.9 kJ/kg
- Soil Dissolution in solvent ([2]; Mineral Oil): Miscible
- Soil Dissolution in solvent ([2]; Refrigerant oil): Miscible
- Soil Dissolution in solvent ([2]; Silicone Lubricant): Miscible
- Soil Dissolution in solvent ([2]; Solder Flux): Miscible
- Acetate [3, 4]: 0.04 ppm
- Br^− [3, 4]: <0.05 ppm
- Cl^− [3, 4]: 0.08 ppm
- F^− [3, 4]: 0.05 ppm
- Formate [3, 4]: 0.10 ppm
- NO3^− [3, 4]: <0.05 ppm
- PO4^−3 [3, 4]: <0.10 ppm
- SO4^−2 [3, 4]: 0.18 ppm
- Acetate [3, 5]: 0.07 ppm
- Br^− [3, 5]: <0.05 ppm
- Cl^− [3, 5]: 0.07 ppm
- F^− [3, 5]: 0.05 ppm
- Formate [3, 5]: 0.14 ppm
- NO3^− [3, 5]: 0.10 ppm
- PO4^−3 [3, 5]: <0.10 ppm
- SO4^−2 [3, 5]: 0.26 ppm
- Acetate [3, 6]: 0.09 ppm
- Br^− [3, 6]: <0.05 ppm
- Cl^− [3, 6]: 0.08 ppm
- F^− [3, 6]: 0.06 ppm
- Formate [3, 6]: 0.16 ppm
- NO3^− [3, 6]: 0.15 ppm
- PO4^−3 [3, 6]: <0.10 ppm
- SO4^−2 [3, 6]: 0.31 ppm
- Acetate [3, 7]: 0.04 ppm
- Br^− [3, 7]: <0.05 ppm
- Cl^− [3, 7]: 0.07 ppm
- F^− [3, 7]: 0.05 ppm
- Formate [3, 7]: 0.08 ppm
- NO3^− [3, 7]: <0.05 ppm
- PO4^−3 [3, 7]: <0.10 ppm
- SO4^−2 [3, 7]: 0.19 ppm
- Acetate [3, 8]: 0.04 ppm
- Br^− [3, 8]: <0.05 ppm
- Cl^− [3, 8]: 0.07 ppm
- F^− [3, 8]: 0.06 ppm
- Formate [3, 8]: 0.08 ppm
- NO3^− [3, 8]: <0.05 ppm
- PO4^−3 [3, 8]: <0.10 ppm
- SO4^−2 [3, 8]: 0.18 ppm
- Acetate [3, 9]: 0.08 ppm
- Br^− [3, 9]: <0.05 ppm
- Cl^− [3, 9]: 0.08 ppm
- F^− [3, 9]: 0.05 ppm
- Formate [3, 9]: 0.12 ppm
- NO3^− [3, 9]: <0.05 ppm
- PO4^−3 [3, 9]: <0.10 ppm
- SO4^−2 [3, 9]: 0.23 ppm
- Acetate [3, 10]: 0.12 ppm
- Br^− [3, 10]: <0.05 ppm
- Cl^− [3, 10]: 0.14 ppm
- F^− [3, 10]: 0.09 ppm
- Formate [3, 10]: 0.26 ppm
- NO3^− [3, 10]: 0.19 ppm
- PO4^−3 [3, 10]: <0.10 ppm
- SO4^−2 [3, 10]: 0.45 ppm
- Acetate [3, 11]: 0.08 ppm
- Br^− [3, 11]: <0.05 ppm
- Cl^− [3, 11]: 0.12 ppm
- F^− [3, 11]: 0.08 ppm
- Formate [3, 11]: 0.17 ppm
- NO3^− [3, 11]: 0.06 ppm
- PO4^−3 [3, 11]: <0.10 ppm
- SO4^−2 [3, 11]: 0.17 ppm
- Acetate [3, 12]: 0.12 ppm
- Br^− [3, 12]: <0.05 ppm
- Cl^− [3, 12]: 0.9 ppm
- F^− [3, 12]: 0.09 ppm
- Formate [3, 12]: 0.10 ppm
- NO3^− [3, 12]: 0.12 ppm
- PO4^−3 [3, 12]: <0.10 ppm
- SO4^−2 [3, 12]: 0.41 ppm
- Acetate [3, 13]: 0.12 ppm
- Br^− [3, 13]: <0.05 ppm
- Cl^− [3, 13]: 0.12 ppm
- F^− [3, 13]: 0.08 ppm
- Formate [3, 13]: 0.22 ppm
- NO3^− [3, 13]: 0.14 ppm
- PO4^−3 [3, 13]: <0.10 ppm
- SO4^−2 [3, 13]: 0.30 ppm
- Acetate [3, 14]: 0.10 ppm
- Br^− [3, 14]: <0.05 ppm
- Cl^− [3, 14]: 0.11 ppm
- F^− [3, 14]: 0.08 ppm
- Formate [3, 14]: 0.12 ppm
- NO3^− [3, 14]: 0.06 ppm
- PO4^−3 [3, 14]: <0.10 ppm
- SO4^−2 [3, 14]: 0.18 ppm
- Acetate [3, 15]: 0.13 ppm
- Br^− [3, 15]: <0.05 ppm
- Cl^− [3, 15]: 0.16 ppm
- F^− [3, 15]: 0.09 ppm
- Formate [3, 15]: 0.19 ppm
- NO3^− [3, 15]: 0.12 ppm
- PO4^−3 [3, 15]: <0.10 ppm
- SO4^−2 [3, 15]: 0.29 ppm
- Acetate [3, 16]: 0.13 ppm
- Br^− [3, 16]: <0.05 ppm
- Cl^− [3, 16]: 0.11 ppm
- F^− [3, 16]: 0.08 ppm
- Formate [3, 16]: 0.35 ppm
- NO3^− [3, 16]: 0.06 ppm
- PO4^−3 [3, 16]: <0.10 ppm
- SO4^−2 [3, 16]: 0.21 ppm
- breakdown products in solvent after reflux ([3]; reflux with individual metals and added moisture (0.20% H2O), 100 hours): no increase of chlorides and fluorides in the solvent over the baseline and no other degradation products
